ChEMBL document CHEMBL1201862, “PubChem BioAssay data set” (2004)
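Tested at 5 concentrations; 48 h exposure; 96-well plates; endpoints linearly interpolated, else capped at highest concentration. At the GI50, growth is halved.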 Calls of active or inactive are those of the source. Cut-off read from the data, not from the text of the source: active = GI50 up to about 1.1 µM and inactive = higher.

How the values were obtained:
Assay in all cases: NCI-60 cell line screen, 48 h
HCT-116 = test system: HCT-116
OVCAR-3 = test system: OVCAR-3
CCRF-CEM = test system: CCRF-CEM
OVCAR-4 = test system: OVCAR-4
T47D = test system: T47D
SW-620 = test system: SW-620
SNB-75 = test system: SNB-75
SF-268 = test system: SF-268
IGROV-1 = test system: IGROV-1
DU-145 = test system: DU-145
786-0 = test system: 786-0
Hs-578T = test system: Hs-578T
MOLT-4 = test system: MOLT-4
HOP-92 = test system: HOP-92
SF-539 = test system: SF-539
SK-MEL-2 = test system: SK-MEL-2
SN12C = test system: SN12C
EKVX = test system: EKVX
U-251 = test system: U-251
MCF7 = test system: MCF7
NCI-H460 = test system: NCI-H460
NCI-H522 = test system: NCI-H522
OVCAR-8 = test system: OVCAR-8
PC-3 = test system: PC-3
MDA-N = test system: MDA-N
K562 = test system: K562
BT-549 = test system: BT-549
KM12 = test system: KM12
COLO 205 = test system: COLO 205
UACC-62 = test system: UACC-62
UACC-257 = test system: UACC-257
RPMI-8226 = test system: RPMI-8226
A549 = test system: A549
SK-MEL-28 = test system: SK-MEL-28
NCI/ADR-RES = test system: NCI/ADR-RES
ACHN = test system: ACHN
Malme-3M = test system: Malme-3M
SK-MEL-5 = test system: SK-MEL-5
M14 = test system: M14
HL-60 = test system: HL-60
HT-29 = test system: HT-29
CAKI-1 = test system: CAKI-1
HCT-15 = test system: HCT-15
MDA-MB-231 = test system: MDA-MB-231
OVCAR-5 = test system: OVCAR-5
HCC 2998 = test system: HCC 2998
NCI-H23 = test system: NCI-H23
HOP-62 = test system: HOP-62
MDA-MB-435 = test system: MDA-MB-435
SNB-19 = test system: SNB-19
SF-295 = test system: SF-295
SK-OV-3 = test system: SK-OV-3
TK-10 = test system: TK-10
LOX IMVI = test system: LOX IMVI
RXF 393 = test system: RXF 393
NCI-H226 = test system: NCI-H226
SR = test system: SR
UO-31 = test system: UO-31

Structure (SMILES): O=C(/C=C(\S/C=C(/c1ccccc1)N1CCn2c(C(=O)c3ccccc3)c(C(=O)c3ccccc3)c(C(=O)c3ccccc3)c21)C(=O)c1ccccc1)c1ccccc1
- GI50 (HCT-116): > 10 µM (inactive)
- GI50 (OVCAR-3): > 10 µM (inactive)
- GI50 (CCRF-CEM): > 10 µM (inactive)
- GI50 (OVCAR-4): > 10 µM (inactive)
- GI50 (T47D): > 10 µM (inactive)
- GI50 (SW-620): > 10 µM (inactive)
- GI50 (SNB-75): > 10 µM (inactive)
- GI50 (SF-268): > 10 µM (inactive)
- GI50 (IGROV-1): > 10 µM (inactive)
- GI50 (DU-145): > 10 µM (inactive)
- GI50 (786-0): > 10 µM (inactive)
- GI50 (Hs-578T): > 10 µM (inactive)
- GI50 (MOLT-4): > 10 µM (inactive)
- GI50 (HOP-92): > 10 µM (inactive)
- GI50 (SF-539): > 10 µM (inactive)
- GI50 (SK-MEL-2): > 10 µM (inactive)
- GI50 (SN12C): > 10 µM (inactive)
- GI50 (EKVX): > 10 µM (inactive)
- GI50 (U-251): > 10 µM (inactive)
- GI50 (MCF7): > 10 µM (inactive)
- GI50 (NCI-H460): > 10 µM (inactive)
- GI50 (NCI-H522): > 10 µM (inactive)
- GI50 (OVCAR-8): > 10 µM (inactive)
- GI50 (PC-3): > 10 µM (inactive)
- GI50 (MDA-N): > 10 µM (inactive)
- GI50 (K562): > 10 µM (inactive)
- GI50 (BT-549): > 10 µM (inactive)
- GI50 (KM12): > 10 µM (inactive)
- GI50 (COLO 205): > 10 µM (inactive)
- GI50 (UACC-62): > 10 µM (inactive)
- GI50 (UACC-257): > 10 µM (inactive)
- GI50 (RPMI-8226): > 10 µM (inactive)
- GI50 (A549): > 10 µM (inactive)
- GI50 (SK-MEL-28): > 10 µM (inactive)
- GI50 (NCI/ADR-RES): > 10 µM (inactive)
- GI50 (ACHN): > 10 µM (inactive)
- GI50 (Malme-3M): > 10 µM (inactive)
- GI50 (SK-MEL-5): > 10 µM (inactive)
- GI50 (M14): > 10 µM (inactive)
- GI50 (HL-60): > 10 µM (inactive)
- GI50 (HT-29): > 10 µM (inactive)
- GI50 (CAKI-1): > 10 µM (inactive)
- GI50 (HCT-15): > 10 µM
- GI50 (MDA-MB-231): > 10 µM (inactive)
- GI50 (OVCAR-5): > 10 µM (inactive)
- GI50 (HCC 2998): > 10 µM (inactive)
- GI50 (NCI-H23): > 10 µM (inactive)
- GI50 (HOP-62): > 10 µM (inactive)
- GI50 (MDA-MB-435): > 10 µM (inactive)
- GI50 (SNB-19): > 10 µM (inactive)
- GI50 (SF-295): > 10 µM (inactive)
- GI50 (SK-OV-3): > 10 µM (inactive)
- GI50 (TK-10): > 10 µM (inactive)

Structure (SMILES): Clc1cc2nc(C3CCCO3)[nH]c2cc1Cl (stereo not drawn)
- GI50 (HCT-116): 39.2 µM (inactive)
- GI50 (OVCAR-3): 32.5 µM (inactive)
- GI50 (CCRF-CEM): 68.4 µM (inactive)
- GI50 (LOX IMVI): 35.4 µM (inactive)
- GI50 (OVCAR-4): 46.8 µM (inactive)
- GI50 (RXF 393): 66.5 µM (inactive)
- GI50 (T47D): 46.2 µM (inactive)
- GI50 (SW-620): 45.8 µM (inactive)
- GI50 (SNB-75): 30.1 µM (inactive)
- GI50 (SF-268): 67 µM (inactive)
- GI50 (IGROV-1): 61.9 µM (inactive)
- GI50 (786-0): > 100 µM (inactive)
- GI50 (Hs-578T): 40.9 µM (inactive)
- GI50 (MOLT-4): 52 µM (inactive)
- GI50 (HOP-92): 85.3 µM (inactive)
- GI50 (SF-539): > 100 µM (inactive)
- GI50 (SK-MEL-2): > 100 µM (inactive)
- GI50 (SN12C): > 100 µM (inactive)
- GI50 (EKVX): 87.5 µM (inactive)
- GI50 (U-251): > 100 µM (inactive)
- GI50 (MCF7): 29.2 µM (inactive)
- GI50 (NCI-H522): 20.4 µM (inactive)
- GI50 (OVCAR-8): 57.9 µM (inactive)
- GI50 (PC-3): 42.7 µM (inactive)
- GI50 (MDA-N): 20.1 µM (inactive)
- GI50 (K562): 38.5 µM (inactive)
- GI50 (NCI-H226): > 100 µM (inactive)
- GI50 (BT-549): 26.2 µM (inactive)
- GI50 (KM12): 32.7 µM (inactive)
- GI50 (COLO 205): 37.1 µM (inactive)
- GI50 (UACC-62): 45.8 µM (inactive)
- GI50 (UACC-257): > 100 µM (inactive)
- GI50 (SR): 37.6 µM (inactive)
- GI50 (RPMI-8226): 72.8 µM (inactive)
- GI50 (A549): 54.6 µM (inactive)
- GI50 (SK-MEL-28): 78 µM (inactive)
- GI50 (NCI/ADR-RES): 43.5 µM (inactive)
- GI50 (ACHN): > 100 µM (inactive)
- GI50 (Malme-3M): > 100 µM (inactive)
- GI50 (SK-MEL-5): 35.9 µM (inactive)
- GI50 (M14): 72.9 µM (inactive)
- GI50 (HL-60): 37.7 µM (inactive)
- GI50 (HT-29): 33.7 µM (inactive)
- GI50 (HCT-15): 31.6 µM
- GI50 (MDA-MB-231): > 100 µM (inactive)
- GI50 (OVCAR-5): > 100 µM (inactive)
- GI50 (HCC 2998): 76.4 µM (inactive)
- GI50 (NCI-H23): 34.4 µM (inactive)
- GI50 (UO-31): 16.9 µM (inactive)
- GI50 (HOP-62): > 100 µM (inactive)
- GI50 (MDA-MB-435): 28.2 µM (inactive)
- GI50 (SNB-19): > 100 µM (inactive)
- GI50 (SF-295): 57.1 µM (inactive)
- GI50 (SK-OV-3): 69.2 µM (inactive)
- GI50 (TK-10): > 100 µM (inactive)
